molecular target: Human α2δ-1 subunit of Cav2.2 calcium channel (Homo sapiens, UniProt P54289); experiment: Human α2δ-1 subunit of Cav2.2 calcium channel assay ([3H]-Gabapentin radioligand binding); settings: Human α2δ-1 enriched membranes, 15 nM [3H]-Gabapentin, 60 min at 27 °C
Method: Human α2δ-1 subunit of Cav2.2 calcium channel assay
Human α2δ-1 enriched membranes (2.5 µg) were incubated with 15 nM of radiolabeled [3H]-Gabapentin in assay buffer containing Hepes-KOH 10mM, pH 7.4. NSB (non specific binding) was measured by adding 10 µM pregabalin. The binding of the tested compound was measured at either one concentration (% inhibition at 1 or 10 µM) or five different concentrations to determine affinity values (Ki). After 60 min incubation at 27 °C, binding reaction was terminated by filtering through Multiscreen GF/C (Millipore) presoaked in 0.5 % polyethyleneimine in Vacuum Manifold Station, followed by 3 washes with ice-cold filtration buffer containing 50 mM Tris-HCI, pH 7.4. Filter plates were dried at 60 °C for 1 h and 30 µL of scintillation cocktail were added to each well before radioactivity reading. Readings were performed in a Trilux 1450 Microbeta radioactive counter (Perkin Elmer).

Human α2δ-1 subunit of Cav2.2 calcium channel, sequence (P54289 25-1103): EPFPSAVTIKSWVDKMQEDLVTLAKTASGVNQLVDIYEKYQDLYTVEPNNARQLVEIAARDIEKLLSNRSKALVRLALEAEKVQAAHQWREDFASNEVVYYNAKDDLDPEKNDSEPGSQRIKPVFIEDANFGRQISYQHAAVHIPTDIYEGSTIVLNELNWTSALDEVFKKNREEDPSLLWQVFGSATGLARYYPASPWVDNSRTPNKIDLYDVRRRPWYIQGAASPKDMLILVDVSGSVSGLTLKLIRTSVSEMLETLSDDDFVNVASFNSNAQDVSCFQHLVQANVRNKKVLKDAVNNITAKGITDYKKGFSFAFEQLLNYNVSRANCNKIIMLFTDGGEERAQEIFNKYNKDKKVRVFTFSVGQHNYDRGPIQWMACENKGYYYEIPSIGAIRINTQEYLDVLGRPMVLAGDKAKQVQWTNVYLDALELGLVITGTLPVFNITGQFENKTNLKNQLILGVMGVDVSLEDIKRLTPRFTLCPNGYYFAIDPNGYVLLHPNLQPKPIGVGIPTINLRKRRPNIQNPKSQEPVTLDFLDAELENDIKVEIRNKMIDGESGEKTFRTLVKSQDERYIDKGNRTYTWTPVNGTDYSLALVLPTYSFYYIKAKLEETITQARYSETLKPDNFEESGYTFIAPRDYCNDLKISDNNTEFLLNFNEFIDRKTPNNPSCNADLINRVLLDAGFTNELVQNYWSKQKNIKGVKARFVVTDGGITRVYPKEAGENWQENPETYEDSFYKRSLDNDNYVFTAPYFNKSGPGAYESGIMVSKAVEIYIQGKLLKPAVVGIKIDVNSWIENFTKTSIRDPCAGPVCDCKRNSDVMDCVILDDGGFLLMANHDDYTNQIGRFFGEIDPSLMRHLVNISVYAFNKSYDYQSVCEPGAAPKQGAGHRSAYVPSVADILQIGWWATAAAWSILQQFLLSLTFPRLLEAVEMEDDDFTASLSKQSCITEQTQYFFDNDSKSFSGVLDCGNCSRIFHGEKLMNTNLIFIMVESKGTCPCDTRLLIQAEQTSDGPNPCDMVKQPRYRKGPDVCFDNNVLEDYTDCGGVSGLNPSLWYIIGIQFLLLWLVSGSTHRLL

Compound	Ki [µM]
COc1ccccc1-c1cn([C@@H]2CN[C@H](C(=O)O)C2)nn1 [Example 3, (2S,4S)-4-(4-(2-methoxyphenyl)-1H-1,2,3-triazol-1-yl)pyrrolidine-2-carboxylic acid]	≥ 5
COc1cccc(-c2cn([C@@H]3CN[C@H](C(=O)O)C3)nn2)c1 [Example 4, (2S,4S)-4-(4-(3-methoxyphenyl)-1H-1,2,3-triazol-1-yl)pyrrolidine-2-carboxylic acid]	≥ 5
COc1ccc(-c2cn([C@@H]3CN[C@H](C(=O)O)C3)nn2)cc1 [Example 6, (2S,4S)-4-(4-(4-methoxyphenyl)-1H-1,2,3-triazol-1-yl)pyrrolidine-2-carboxylic acid]	≥ 5
Cc1cccc(-c2cn([C@@H]3CN[C@H](C(=O)O)C3)nn2)c1 [Example 8, (2S,4S)-4-(4-(m-tolyl)-1H-1,2,3-triazol-1-yl)pyrrolidine-2-carboxylic acid]	≥ 5
COc1ccc(-c2cn([C@@H]3CN[C@H](C(=O)O)C3)nn2)c(Cl)c1 [Example 11, (2S,4S)-4-(4-(2-chloro-4-methoxyphenyl)-1H-1,2,3-triazol-1-yl)pyrrolidine-2-carboxylic acid]	≥ 5
O=C(O)[C@@H]1C[C@H](n2cc(-c3ccc(Cl)cc3Cl)nn2)CN1 [Example 13, (2S,4S)-4-(4-(2,4-dichlorophenyl)-1H-1,2,3-triazol-1-yl)pyrrolidine-2-carboxylic acid]	≥ 5
O=C(O)[C@@H]1C[C@H](n2cc(-c3cc(F)cc(F)c3)nn2)CN1 [Example 15, (2S,4S)-4-(4-(3,5-difluorophenyl)-1H-1,2,3-triazol-1-yl)pyrrolidine-2-carboxylic acid]	≥ 5
O=C(O)[C@@H]1C[C@H](n2cc(Cc3ccccc3)nn2)CN1 [Example 16, (2S,4S)-4-(4-benzyl-1H-1,2,3-triazol-1-yl)pyrrolidine-2-carboxylic acid]	≥ 5
O=C(O)[C@@H]1C[C@H](n2cc(-c3cccnc3)nn2)CN1 [Example 18, (2S,4S)-4-(4-(pyridin-3-yl)-1H-1,2,3-triazol-1-yl)pyrrolidine-2-carboxylic acid]	≥ 5
O=C(O)[C@@H]1C[C@H](n2cc(-c3ccncc3)nn2)CN1 [Example 19, (2S,4S)-4-(4-(pyridin-4-yl)-1H-1,2,3-triazol-1-yl)pyrrolidine-2-carboxylic acid]	≥ 5
O=C(O)[C@@H]1C[C@H](n2cc(-c3cncc(Cl)c3)nn2)CN1 [Example 20, (2S,4S)-4-(4-(5-chloropyridin-3-yl)-1H-1,2,3-triazol-1-yl)pyrrolidine-2-carboxylic acid]	≥ 5
N#Cc1cccc(-c2cn([C@@H]3CN[C@H](C(=O)O)C3)nn2)c1 [Example 21, (2S,4S)-4-(4-(3-cyanophenyl)-1H-1,2,3-triazol-1-yl)pyrrolidine-2-carboxylic acid]	≥ 5
N#Cc1ccc(-c2cn([C@@H]3CN[C@H](C(=O)O)C3)nn2)cc1 [Example 22, (2S,4S)-4-(4-(4-cyanophenyl)-1H-1,2,3-triazol-1-yl)pyrrolidine-2-carboxylic acid]	≥ 5
O=C(O)[C@@H]1C[C@H](n2cc(Cc3cccc(Cl)c3)nn2)CN1 [Example 23, (2S,4S)-4-(4-(3-chlorobenzyl)-1 H-1,2,3-triazol-1-yl)pyrrolidine-2-carboxylic acid]	≥ 5
CN(C)Cc1cc(F)cc(-c2cn([C@@H]3CN[C@H](C(=O)O)C3)nn2)c1 [Example 25, (2S,4S)-4-(4-(3-((dimethylamino)methyl)-5-fluorophenyl)-1 H-1,2,3-triazol-1-yl)pyrrolidine-2-carboxylic acid]	≥ 5
CNCc1cc(F)cc(-c2cn([C@@H]3CN[C@H](C(=O)O)C3)nn2)c1 [Example 26, (2S,4S)-4-(4-(3-fluoro-5-((methylamino)methyl)phenyl)-1H-1,2,3-triazol-1-yl)pyrrolidine-2-carboxylic acid]	≥ 5
O=C(O)[C@@H]1C[C@H](n2cc(-c3cc(Cl)cc(Cl)c3)nn2)CN1 [Example 27, (2S,4S)-4-(4-(3,5-dichlorophenyl)-1H-1,2,3-triazol-1-yl)pyrrolidine-2-carboxylic acid]	≥ 5
CN(Cc1ccccc1)Cc1cc(F)cc(-c2cn([C@@H]3CN[C@H](C(=O)O)C3)nn2)c1 [Example 28, (2S,4S)-4-(4-(3-((benzyl(methyl)amino)methyl)-5-fluorophenyl)-1H-1,2,3-triazol-1-yl)pyrrolidine-2-carboxylic acid]	≥ 5
O=C(O)[C@@H]1C[C@H](n2cc(Cc3ccc(Cl)cc3)nn2)CN1 [Example 30, (2S,4S)-4-(4-(4-chlorobenzyl)-1 H-1,2,3-triazol-1-yl)pyrrolidine-2-carboxylic acid]	≥ 5
(2S,4S)-4-(4-(3-((benzylamino)methyl)-5-fluorophenyl)-1H-1,2,3-triazol-1-yl)pyrrolidine-2-carboxylic acid [Example 29]	≥ 5
(2S,4S)-4-(4-(4-fluorophenyl)-1 H-1,2,3-triazol-1-yl)pyrrolidine-2-carboxylic acid [Example 5]	0.5 to 5

Next, values leading:

Ki [µM]	Compound
< 0.5	O=C(O)[C@@H]1C[C@H](n2cc(-c3cccc(F)c3)nn2)CN1 [Example 1, (2S,4S)-4-(4-(3-Fluorophenyl)-1H-1,2,3-triazol-1-yl)pyrrolidine-2-carboxylic acid]
< 0.5	O=C(O)[C@@H]1C[C@H](n2cc(-c3cccc(Cl)c3)nn2)CN1 [Example 2, (2S,4S)-4-(4-(3-chlorophenyl)-1H-1,2,3-triazol-1-yl)pyrrolidine-2-carboxylic acid]
0.5 to 5	O=C(O)[C@@H]1C[C@H](n2cc(-c3ccccc3)nn2)CN1 [Example 7, (2S,4S)-4-(4-phenyl-1H-1,2,3-triazol-1-yl)pyrrolidine-2-carboxylic acid]
0.5 to 5	O=C(O)[C@@H]1C[C@H](n2cc(-c3ccccn3)nn2)CN1 [Example 9, (2S,4S)-4-(4-(pyridin-2-yl)-1H-1,2,3-triazol-1-yl)pyrrolidine-2-carboxylic acid]
< 0.5	O=C(O)[C@@H]1C[C@H](n2cc(-c3ccc(F)c(F)c3)nn2)CN1 [Example 10, (2S,4S)-4-(4-(3,4-difluorophenyl)-1H-1,2,3-triazol-1-yl)pyrrolidine-2-carboxylic acid]
0.5 to 5	O=C(O)[C@@H]1C[C@H](n2cc(-c3ccccc3Cl)nn2)CN1 [Example 12, (2S,4S)-4-(4-(2-chlorophenyl)-1 H-1,2,3-triazol-1-yl)pyrrolidine-2-carboxylic acid]
0.5 to 5	O=C(O)[C@@H]1C[C@H](n2cc(-c3ccc(Cl)c(Cl)c3)nn2)CN1 [Example 14, (2S,4S)-4-(4-(3,4-dichlorophenyl)-1H-1,2,3-triazol-1-yl)pyrrolidine-2-carboxylic acid]
0.5 to 5	O=C(O)[C@@H]1C[C@H](n2cc(-c3ccc(Br)cc3)nn2)CN1 [Example 17, (2S,4S)-4-(4-(4-bromophenyl)-1 H-1,2,3-triazol-1-yl)pyrrolidine-2-carboxylic acid]
0.5 to 5	O=C(O)[C@@H]1C[C@H](n2cc(-c3cccc(Br)c3)nn2)CN1 [Example 24, (2S,4S)-4-(4-(3-bromophenyl)-1 H-1,2,3-triazol-1-yl)pyrrolidine-2-carboxylic acid]

— EP3741750A1, “4-(1H-1,2,3-TRIAZOL-1-YL)PYRROLIDINE-2-CARBOXYLIC ACID DERIVATIVES HAVING ACTIVITY AGAINST PAIN” (ESTEVE PHARMACEUTICALS, S.A., priority 2019, dated 2020)
